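Cells were grown in 96-well plates and exposed to each compound for 48 hours at five concentrations; endpoints were interpolated linearly between bracketing concentrations, or set to the highest concentration if not reached. GI50 marks 50% less growth.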 Activity calls are given as the source filed them. Cut-off read from the data, not from the text of the source: active = GI50 up to about 1.1 µM and inactive = higher.
Tests used:
Experiment in all cases: DTP human tumour cell line panel, 48 h
U-251 = tested on: U-251
RXF 393 = tested on: RXF 393
UO-31 = tested on: UO-31
SNB-19 = tested on: SNB-19
NCI-H226 = tested on: NCI-H226
HOP-92 = tested on: HOP-92
PC-3 = tested on: PC-3
HT-29 = tested on: HT-29
A498 = tested on: A498
MCF7 = tested on: MCF7
HCT-15 = tested on: HCT-15
TK-10 = tested on: TK-10
EKVX = tested on: EKVX
COLO 205 = tested on: COLO 205
CCRF-CEM = tested on: CCRF-CEM
NCI-H522 = tested on: NCI-H522
NCI-H23 = tested on: NCI-H23
NCI-H460 = tested on: NCI-H460
IGROV-1 = tested on: IGROV-1
UACC-62 = tested on: UACC-62
K562 = tested on: K562
Malme-3M = tested on: Malme-3M
SF-295 = tested on: SF-295
HCT-116 = tested on: HCT-116
SK-OV-3 = tested on: SK-OV-3
786-0 = tested on: 786-0
OVCAR-3 = tested on: OVCAR-3
Hs-578T = tested on: Hs-578T
T47D = tested on: T47D
SNB-75 = tested on: SNB-75
MDA-MB-231 = tested on: MDA-MB-231
BT-549 = tested on: BT-549
DU-145 = tested on: DU-145
NCI/ADR-RES = tested on: NCI/ADR-RES
UACC-257 = tested on: UACC-257
OVCAR-8 = tested on: OVCAR-8
SK-MEL-28 = tested on: SK-MEL-28
SF-539 = tested on: SF-539
KM12 = tested on: KM12
HL-60 = tested on: HL-60
MOLT-4 = tested on: MOLT-4
A549 = tested on: A549
SW-620 = tested on: SW-620
LOX IMVI = tested on: LOX IMVI
M14 = tested on: M14
OVCAR-5 = tested on: OVCAR-5
ACHN = tested on: ACHN
SK-MEL-2 = tested on: SK-MEL-2
MDA-N = tested on: MDA-N
HOP-62 = tested on: HOP-62
OVCAR-4 = tested on: OVCAR-4
HCC 2998 = tested on: HCC 2998
SK-MEL-5 = tested on: SK-MEL-5
MDA-MB-435 = tested on: MDA-MB-435
SN12C = tested on: SN12C
SF-268 = tested on: SF-268
CAKI-1 = tested on: CAKI-1
SR = tested on: SR
RPMI-8226 = tested on: RPMI-8226

SMILES: COC(=O)c1ccccc1C1CN=NC12Cc1c(C)ccc(C)c1C2=O (configuration not stated)
- GI50 (U-251): > 100 µM (inactive)
- GI50 (RXF 393): > 100 µM (inactive)
- GI50 (UO-31): > 100 µM (inactive)
- GI50 (SNB-19): > 100 µM (inactive)
- GI50 (NCI-H226): > 100 µM (inactive)
- GI50 (HOP-92): 23.3 µM (inactive)
- GI50 (PC-3): > 100 µM (inactive)
- GI50 (HT-29): > 100 µM (inactive)
- GI50 (A498): > 100 µM (inactive)
- GI50 (MCF7): > 100 µM (inactive)
- GI50 (HCT-15): > 100 µM
- GI50 (TK-10): > 100 µM (inactive)
- GI50 (EKVX): > 100 µM (inactive)
- GI50 (COLO 205): > 100 µM (inactive)
- GI50 (CCRF-CEM): > 100 µM (inactive)
- GI50 (NCI-H522): > 100 µM (inactive)
- GI50 (NCI-H23): > 100 µM (inactive)
- GI50 (NCI-H460): > 100 µM (inactive)
- GI50 (IGROV-1): > 100 µM (inactive)
- GI50 (UACC-62): > 100 µM (inactive)
- GI50 (K562): 68.5 µM (inactive)
- GI50 (Malme-3M): 36.6 µM (inactive)
- GI50 (SF-295): > 100 µM (inactive)
- GI50 (HCT-116): 82.6 µM (inactive)
- GI50 (SK-OV-3): > 100 µM (inactive)
- GI50 (786-0): > 100 µM (inactive)
- GI50 (OVCAR-3): > 100 µM (inactive)
- GI50 (Hs-578T): > 100 µM (inactive)
- GI50 (T47D): > 100 µM (inactive)
- GI50 (SNB-75): > 100 µM (inactive)
- GI50 (MDA-MB-231): > 100 µM (inactive)
- GI50 (BT-549): > 100 µM (inactive)
- GI50 (DU-145): > 100 µM (inactive)
- GI50 (NCI/ADR-RES): > 100 µM (inactive)
- GI50 (UACC-257): > 100 µM (inactive)
- GI50 (OVCAR-8): > 100 µM (inactive)
- GI50 (SK-MEL-28): > 100 µM (inactive)
- GI50 (SF-539): > 100 µM (inactive)
- GI50 (KM12): > 100 µM (inactive)
- GI50 (HL-60): 37.6 µM (inactive)
- GI50 (MOLT-4): 88.5 µM (inactive)
- GI50 (A549): > 100 µM (inactive)
- GI50 (SW-620): > 100 µM (inactive)
- GI50 (LOX IMVI): > 100 µM (inactive)
- GI50 (M14): > 100 µM (inactive)
- GI50 (OVCAR-5): > 100 µM (inactive)
- GI50 (ACHN): > 100 µM (inactive)
- GI50 (SK-MEL-2): > 100 µM (inactive)
- GI50 (MDA-N): > 100 µM (inactive)
- GI50 (HOP-62): > 100 µM (inactive)
- GI50 (OVCAR-4): > 100 µM (inactive)
- GI50 (HCC 2998): > 100 µM (inactive)
- GI50 (SK-MEL-5): > 100 µM (inactive)
- GI50 (MDA-MB-435): > 100 µM (inactive)
- GI50 (SN12C): > 100 µM (inactive)
- GI50 (SF-268): > 100 µM (inactive)
- GI50 (CAKI-1): > 100 µM (inactive)

SMILES: COc1ccc(-c2cc(-c3ccccc3)n(C3OC(COC(C)=O)C(OC(C)=O)C(OC(C)=O)C3OC(C)=O)c(=S)c2C#N)cc1 (configuration not stated)
- GI50 (U-251): 6.79 µM (inactive)
- GI50 (RXF 393): 11.2 µM (inactive)
- GI50 (UO-31): 9.08 µM (inactive)
- GI50 (SNB-19): 11.1 µM (inactive)
- GI50 (NCI-H226): 5.87 µM (inactive)
- GI50 (HOP-92): 4.39 µM (inactive)
- GI50 (PC-3): 12.4 µM (inactive)
- GI50 (HT-29): 6.28 µM (inactive)
- GI50 (MCF7): 25.4 µM (inactive)
- GI50 (HCT-15): 26.1 µM
- GI50 (TK-10): 25.9 µM (inactive)
- GI50 (EKVX): 14.9 µM (inactive)
- GI50 (SR): 13.6 µM (inactive)
- GI50 (COLO 205): 11.3 µM (inactive)
- GI50 (RPMI-8226): 3.28 µM (inactive)
- GI50 (NCI-H522): 5.37 µM (inactive)
- GI50 (NCI-H23): 19.3 µM (inactive)
- GI50 (NCI-H460): 7.48 µM (inactive)
- GI50 (IGROV-1): 14.8 µM (inactive)
- GI50 (UACC-62): 4.79 µM (inactive)
- GI50 (K562): 3.61 µM (inactive)
- GI50 (Malme-3M): 5.87 µM (inactive)
- GI50 (SF-295): 5.47 µM (inactive)
- GI50 (HCT-116): 6.07 µM (inactive)
- GI50 (SK-OV-3): 18.8 µM (inactive)
- GI50 (786-0): 3.44 µM (inactive)
- GI50 (OVCAR-3): 11.4 µM (inactive)
- GI50 (Hs-578T): 5.71 µM (inactive)
- GI50 (T47D): 4.69 µM (inactive)
- GI50 (SNB-75): 6.38 µM (inactive)
- GI50 (MDA-MB-231): 4.79 µM (inactive)
- GI50 (BT-549): 12.4 µM (inactive)
- GI50 (DU-145): 11.7 µM (inactive)
- GI50 (NCI/ADR-RES): 11 µM (inactive)
- GI50 (OVCAR-8): 3.58 µM (inactive)
- GI50 (SK-MEL-28): 12.6 µM (inactive)
- GI50 (SF-539): 3.88 µM (inactive)
- GI50 (KM12): 16.9 µM (inactive)
- GI50 (HL-60): 2.61 µM (inactive)
- GI50 (MOLT-4): 17.9 µM (inactive)
- GI50 (A549): 10.6 µM (inactive)
- GI50 (SW-620): 13.9 µM (inactive)
- GI50 (LOX IMVI): 4.51 µM (inactive)
- GI50 (M14): 8 µM (inactive)
- GI50 (OVCAR-5): 15.7 µM (inactive)
- GI50 (ACHN): 15.2 µM (inactive)
- GI50 (MDA-N): 8.05 µM (inactive)
- GI50 (HOP-62): 3.81 µM (inactive)
- GI50 (OVCAR-4): 2.6 µM (inactive)
- GI50 (HCC 2998): 22.3 µM (inactive)
- GI50 (SK-MEL-5): 6.71 µM (inactive)
- GI50 (MDA-MB-435): 6.89 µM (inactive)
- GI50 (SN12C): 9.79 µM (inactive)
- GI50 (SF-268): 14.2 µM (inactive)
- GI50 (CAKI-1): 6.52 µM (inactive)

From ChEMBL document CHEMBL1201862, “PubChem BioAssay data set” (2004)
